Data published in article PMC10745491 (Frontiers in Cellular Neuroscience, 2023).
Read-outs that look alike come from different tables or passages of the source. Peptide text beside a SMILES is read from it.

Legend:
5-HT2A = 5-HT2A (Homo sapiens, UniProt P28223); test: radioligand binding assay
GSK3alpha = GSK3alpha (Homo sapiens, UniProt P49840)
A3 = A3 (Homo sapiens, UniProt P0DMS8)
mu = mu (Homo sapiens, UniProt P35372)
CPA rats = settings: rat, in vivo; for social interaction time (Fig. 5O): sc
BZD = test: radioligand binding assay; parameters: species or system human
D2S = D2S (Homo sapiens, UniProt P14416); type: binding
D2S, sequence (P14416 other isoform, or with tags, fused parts or gaps): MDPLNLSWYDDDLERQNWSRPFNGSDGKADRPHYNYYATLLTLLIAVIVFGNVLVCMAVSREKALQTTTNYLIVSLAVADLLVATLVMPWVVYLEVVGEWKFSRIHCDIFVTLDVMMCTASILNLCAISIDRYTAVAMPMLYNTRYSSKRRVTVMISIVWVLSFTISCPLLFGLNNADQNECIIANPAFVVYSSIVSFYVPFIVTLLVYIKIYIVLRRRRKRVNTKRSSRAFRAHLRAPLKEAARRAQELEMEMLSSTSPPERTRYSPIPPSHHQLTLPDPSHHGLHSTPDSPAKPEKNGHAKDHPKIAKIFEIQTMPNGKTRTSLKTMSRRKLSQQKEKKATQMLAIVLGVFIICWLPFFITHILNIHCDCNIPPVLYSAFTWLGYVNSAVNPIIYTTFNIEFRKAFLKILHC

COX2 = COX2 (Homo sapiens, UniProt P35354)
MAO-B enzyme = MAO-B enzyme (Homo sapiens, UniProt P27338)
MAO-B enzyme, sequence (P27338 whole entry): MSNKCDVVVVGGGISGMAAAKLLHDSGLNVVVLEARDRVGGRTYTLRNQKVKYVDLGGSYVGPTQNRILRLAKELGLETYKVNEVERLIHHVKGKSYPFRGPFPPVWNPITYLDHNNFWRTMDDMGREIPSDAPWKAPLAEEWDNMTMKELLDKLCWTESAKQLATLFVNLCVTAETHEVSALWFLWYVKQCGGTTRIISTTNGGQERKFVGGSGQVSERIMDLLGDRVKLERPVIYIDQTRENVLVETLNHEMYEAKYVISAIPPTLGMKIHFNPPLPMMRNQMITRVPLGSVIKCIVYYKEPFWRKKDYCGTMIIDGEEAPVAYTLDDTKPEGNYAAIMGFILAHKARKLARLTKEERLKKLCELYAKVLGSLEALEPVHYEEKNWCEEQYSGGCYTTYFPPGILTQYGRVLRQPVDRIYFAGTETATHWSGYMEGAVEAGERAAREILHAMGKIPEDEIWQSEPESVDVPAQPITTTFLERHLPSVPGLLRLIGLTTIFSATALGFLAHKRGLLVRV

alpha 1A = alpha 1A (Homo sapiens, UniProt P35348); type: binding
rat OXTR = rat OXTR (Rattus norvegicus, UniProt P70536); test: cell-based
D1 = D1 (Homo sapiens, UniProt P21728)
D1, sequence (P21728 whole entry): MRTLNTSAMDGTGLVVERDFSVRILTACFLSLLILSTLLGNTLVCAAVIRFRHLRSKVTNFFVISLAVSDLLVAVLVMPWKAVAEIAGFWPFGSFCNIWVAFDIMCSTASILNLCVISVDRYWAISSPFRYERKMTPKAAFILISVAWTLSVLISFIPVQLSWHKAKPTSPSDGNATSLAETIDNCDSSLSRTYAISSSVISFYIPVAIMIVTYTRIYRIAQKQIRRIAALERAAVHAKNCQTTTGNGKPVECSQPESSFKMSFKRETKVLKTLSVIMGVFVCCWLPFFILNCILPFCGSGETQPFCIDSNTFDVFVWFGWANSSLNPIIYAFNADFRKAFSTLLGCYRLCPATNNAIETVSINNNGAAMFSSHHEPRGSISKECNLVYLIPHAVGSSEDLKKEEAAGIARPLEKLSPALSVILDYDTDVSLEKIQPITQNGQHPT

H3 = H3 (Homo sapiens, UniProt Q9Y5N1)
alpha 2A = alpha 2A (Homo sapiens, UniProt P08913)
alpha 2A, sequence (P08913 whole entry): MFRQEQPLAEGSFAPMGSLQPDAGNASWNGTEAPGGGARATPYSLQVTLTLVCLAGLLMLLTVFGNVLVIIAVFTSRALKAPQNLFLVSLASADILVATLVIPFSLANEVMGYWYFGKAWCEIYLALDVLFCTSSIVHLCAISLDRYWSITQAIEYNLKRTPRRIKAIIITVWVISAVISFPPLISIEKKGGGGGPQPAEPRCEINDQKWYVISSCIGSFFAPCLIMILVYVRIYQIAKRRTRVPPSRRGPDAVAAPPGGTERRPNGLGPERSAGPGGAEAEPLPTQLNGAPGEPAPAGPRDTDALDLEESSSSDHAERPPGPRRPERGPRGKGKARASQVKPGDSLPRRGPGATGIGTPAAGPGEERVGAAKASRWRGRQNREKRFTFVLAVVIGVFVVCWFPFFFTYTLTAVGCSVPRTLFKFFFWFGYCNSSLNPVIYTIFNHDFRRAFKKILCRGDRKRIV

ERalpha = ERalpha (Homo sapiens, UniProt P03372)
brain OXTR = settings: in vivo
H2 = H2 (Homo sapiens, UniProt P25021)
H2, sequence (P25021 whole entry): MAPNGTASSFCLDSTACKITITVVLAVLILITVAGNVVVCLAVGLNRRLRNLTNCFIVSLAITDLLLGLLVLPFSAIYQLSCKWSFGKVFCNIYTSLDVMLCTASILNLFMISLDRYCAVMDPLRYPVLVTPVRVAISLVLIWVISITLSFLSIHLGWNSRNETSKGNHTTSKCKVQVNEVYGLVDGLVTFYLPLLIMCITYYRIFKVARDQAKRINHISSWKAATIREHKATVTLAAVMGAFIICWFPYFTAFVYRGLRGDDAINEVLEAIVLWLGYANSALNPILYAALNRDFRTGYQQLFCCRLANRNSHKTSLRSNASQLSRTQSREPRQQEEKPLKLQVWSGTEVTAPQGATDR

sst4 = sst4 (Homo sapiens, UniProt P31391); type: binding
sst4, sequence (P31391 whole entry): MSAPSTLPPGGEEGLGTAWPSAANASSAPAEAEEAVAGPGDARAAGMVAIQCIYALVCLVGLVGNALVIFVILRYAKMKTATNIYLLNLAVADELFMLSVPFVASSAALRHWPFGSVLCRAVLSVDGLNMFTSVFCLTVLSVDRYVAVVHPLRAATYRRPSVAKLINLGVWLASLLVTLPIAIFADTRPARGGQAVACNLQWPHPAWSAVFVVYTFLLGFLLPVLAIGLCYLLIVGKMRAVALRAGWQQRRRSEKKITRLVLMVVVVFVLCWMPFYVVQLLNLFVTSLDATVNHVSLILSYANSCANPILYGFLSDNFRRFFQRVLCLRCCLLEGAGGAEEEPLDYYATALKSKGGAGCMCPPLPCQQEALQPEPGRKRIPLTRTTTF

[1] = rat
AT1 = AT1 (Homo sapiens, UniProt P30556); type: binding
AT1, sequence (P30556 whole entry): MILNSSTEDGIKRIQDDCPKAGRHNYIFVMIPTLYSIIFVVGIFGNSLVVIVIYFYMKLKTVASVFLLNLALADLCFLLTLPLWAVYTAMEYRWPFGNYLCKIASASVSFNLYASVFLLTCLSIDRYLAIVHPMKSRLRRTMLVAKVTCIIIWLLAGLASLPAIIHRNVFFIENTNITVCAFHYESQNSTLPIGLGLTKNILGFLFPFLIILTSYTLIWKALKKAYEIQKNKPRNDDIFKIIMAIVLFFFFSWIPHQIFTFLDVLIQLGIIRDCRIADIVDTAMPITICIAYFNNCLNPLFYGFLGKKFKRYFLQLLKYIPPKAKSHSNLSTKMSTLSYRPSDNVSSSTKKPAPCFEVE

A3, sequence (P0DMS8 whole entry): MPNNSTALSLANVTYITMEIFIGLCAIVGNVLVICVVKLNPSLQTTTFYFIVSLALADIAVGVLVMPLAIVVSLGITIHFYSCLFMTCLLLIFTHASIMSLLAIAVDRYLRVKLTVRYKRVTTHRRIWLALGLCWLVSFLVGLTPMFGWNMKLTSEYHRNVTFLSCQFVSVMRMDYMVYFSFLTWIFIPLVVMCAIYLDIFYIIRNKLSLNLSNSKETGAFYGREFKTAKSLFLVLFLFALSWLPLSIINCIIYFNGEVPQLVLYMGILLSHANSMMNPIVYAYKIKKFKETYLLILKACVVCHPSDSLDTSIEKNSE
mu, sequence (P35372 whole entry): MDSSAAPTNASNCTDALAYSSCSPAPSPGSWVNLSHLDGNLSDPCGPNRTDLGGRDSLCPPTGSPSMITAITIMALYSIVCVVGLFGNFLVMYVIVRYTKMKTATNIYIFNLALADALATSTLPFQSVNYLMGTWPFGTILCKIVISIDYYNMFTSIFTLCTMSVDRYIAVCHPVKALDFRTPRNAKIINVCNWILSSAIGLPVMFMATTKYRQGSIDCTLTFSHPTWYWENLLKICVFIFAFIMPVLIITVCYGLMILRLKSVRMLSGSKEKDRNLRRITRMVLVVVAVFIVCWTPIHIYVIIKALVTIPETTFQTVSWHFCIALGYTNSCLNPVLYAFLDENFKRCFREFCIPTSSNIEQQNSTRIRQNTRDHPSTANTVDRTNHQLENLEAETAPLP
5-HT2A, sequence (P28223 whole entry): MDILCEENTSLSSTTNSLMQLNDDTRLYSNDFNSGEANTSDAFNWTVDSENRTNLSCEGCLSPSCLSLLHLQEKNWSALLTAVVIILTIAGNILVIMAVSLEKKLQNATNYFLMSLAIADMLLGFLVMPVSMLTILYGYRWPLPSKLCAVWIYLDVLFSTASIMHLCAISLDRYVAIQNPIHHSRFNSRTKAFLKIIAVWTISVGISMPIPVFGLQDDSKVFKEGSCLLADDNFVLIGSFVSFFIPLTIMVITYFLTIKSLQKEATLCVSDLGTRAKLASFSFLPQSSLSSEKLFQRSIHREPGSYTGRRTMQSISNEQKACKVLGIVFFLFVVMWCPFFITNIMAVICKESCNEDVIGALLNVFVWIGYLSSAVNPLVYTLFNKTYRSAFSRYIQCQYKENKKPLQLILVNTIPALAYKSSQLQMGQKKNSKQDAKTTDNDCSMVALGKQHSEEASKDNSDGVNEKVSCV
GSK3alpha, sequence (P49840 whole entry): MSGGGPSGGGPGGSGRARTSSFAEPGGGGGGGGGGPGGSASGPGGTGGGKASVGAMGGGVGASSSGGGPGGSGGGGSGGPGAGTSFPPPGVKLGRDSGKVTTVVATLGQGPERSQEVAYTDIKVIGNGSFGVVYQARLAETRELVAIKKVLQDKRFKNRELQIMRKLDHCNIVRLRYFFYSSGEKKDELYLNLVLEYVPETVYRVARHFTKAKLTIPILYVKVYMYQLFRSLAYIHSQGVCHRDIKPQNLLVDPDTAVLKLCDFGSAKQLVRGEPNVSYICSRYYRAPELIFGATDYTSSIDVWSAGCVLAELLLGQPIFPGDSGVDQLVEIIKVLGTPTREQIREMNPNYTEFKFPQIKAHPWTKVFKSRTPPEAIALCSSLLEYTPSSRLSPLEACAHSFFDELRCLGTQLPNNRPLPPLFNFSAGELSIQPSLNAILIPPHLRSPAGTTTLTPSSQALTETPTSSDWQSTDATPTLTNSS

Structure (SMILES): CC[C@H](C)[C@@H]1NC(=O)[C@H](Cc2ccc(O)cc2)NC(=O)CNC(=O)CC[C@@H](C(=O)N2CC(F)C[C@H]2C(=O)N[C@@H](CC(C)C)C(=O)NCC(N)=O)NC(=O)[C@H](CC(N)=O)NC(=O)[C@H](CCC(N)=O)NC1=O (some centres unmarked) [RO6958375] (HELM PEPTIDE1{G.Y.I.Q.N.E.[O=C([C@@H]1CC(F)CN1[*:1])[*:2]].L.G.[am]}$PEPTIDE1,PEPTIDE1,1:R1-6:R3$$$V2.0)
- % Inhibition of Control Specific Binding (5-HT2A): 9%
- Mean / % of Control Specific Binding (5-HT2A): 90.6%
- % Inhibition of Control Specific Binding (GSK3alpha): -5%
- Mean / % of Control Specific Binding (GSK3alpha): 105.2%
- % Inhibition of Control Specific Binding (A3): 4%
- Mean / % of Control Specific Binding (A3): 96.4%
- % Inhibition of Control Specific Binding (mu): 2%
- Mean / % of Control Specific Binding (mu): 98.2%
- social deficits observed in CPA rats (CPA rats): not evident
- social interaction time (Fig. 5O) (CPA rats; 0.001 mg/kg): 198.6 s
- social interaction time (Fig. 5O) (CPA rats; 0.07 mg/kg): 190.2 s
- % Inhibition of Control Specific Binding (BZD): -16%
- Mean / % of Control Specific Binding (BZD): 116%
- % Inhibition of Control Specific Binding (D2S): 6%
- Mean / % of Control Specific Binding (D2S): 93.7%
- % Inhibition of Control Specific Binding (COX2): 15%
- Mean / % of Control Specific Binding (COX2): 85.3%
- % Inhibition of Control Specific Binding (MAO-B enzyme): -14%
- Mean / % of Control Specific Binding (MAO-B enzyme): 113.8%
- % Inhibition of Control Specific Binding (alpha 1A): 1%
- Mean / % of Control Specific Binding (alpha 1A): 98.8%
- EC50 (rat OXTR): 11 pM
- % Inhibition of Control Specific Binding (D1): -2%
- Mean / % of Control Specific Binding (D1): 102.2%
- % Inhibition of Control Specific Binding (H3): -6%
- Mean / % of Control Specific Binding (H3): 105.9%
- % Inhibition of Control Specific Binding (glycine): 15%
- Mean / % of Control Specific Binding (glycine): 84.6%
- % Inhibition of Control Specific Binding (alpha 2A): -7%
- Mean / % of Control Specific Binding (alpha 2A): 106.7%
- % Inhibition of Control Specific Binding (ERalpha): -2%
- Mean / % of Control Specific Binding (ERalpha): 101.7%
- time of full activation of rat OXTR post-dose (brain OXTR; sc): 4.3 h
- CSF concentration relative to in vitro OXTR EC50 (brain OXTR; rat): more than 10 fold
- brain OXTR activation (brain OXTR; rat): 0%
- brain OXTR activation (brain OXTR; rat, sc, 0.001 mg/kg): 10%
- brain OXTR activation (brain OXTR; rat, sc, 0.07 mg/kg): 72%
- % Inhibition of Control Specific Binding (H2): 18%
- Mean / % of Control Specific Binding (H2): 81.9%
- % Inhibition of Control Specific Binding (sst4): 17%
- Mean / % of Control Specific Binding (sst4): 82.8%
- plasma protein binding [1]: negligible
- % Inhibition of Control Specific Binding (AT1): -1%
- Mean / % of Control Specific Binding (AT1): 101.4%
